Test results as given in patent publication US10604476B2, “Fluorinated amide derivatives and their uses as therapeutic agents” (Trillium Therapeutics Inc., priority 2015, dated 2020).

Assays:
[1] = test system: audiogenic seizure (AGS); assay: Frings AGS-susceptible mouse model; type: in vivo; settings: ip, read-out: ED50, block of AGS
Source text: Frings audiogenic seizure (AGS)-susceptible mice model examines the ability of an investigational drug to alter the onset and/or severity of seizures in a genetic mouse model of seizure susceptibility. Mice are genetically susceptible to sound-induced reflex seizures. Their seizure phenotype is characterized by wild running, loss of righting reflex, tonic flexion, and tonic extension in response to high-intensity sound stimulation. […] For example, the prototypical anticonvulsants phenytoin and ethosuximide display widely divergent clinical spectrums in humans, but are both active against sound-induced seizures in mice. Yet, the preclinical utility of this animal model rests in the useful information that can be obtained within a genetically susceptible model of seizures. Further, efficacy in this model provides proof of concept of brain bioavailability following systemic administration. […] At the time of peak effect as determined in the MES test (Test 4 in CF1 mice), individual mice are placed in a round plexiglass jar (diameter, 15 cm; height, 18 cm) and exposed to a sound stimulus of 110 decibels (11 KHz) delivered for 20 sec. […] The severity of a seizure may also be quantitated by assigning a numerical score to the observed response, e.g. no response—0; wild running for <10 sec—1; wild running for >10 sec—2; clonic seizure—3; forelimb extension/hind limb flexion—4; tonic seizure—5.

[2] = test system: gross motor function; assay: Rotorod, mouse (Table 8); settings: in vivo, po, Table 8, mouse
[3] = test system: spontaneous recurrent hippocampal paroxysmal discharges (HPD); assay: Mesial temporal lobe epilepsy (mTLE) mouse model; type: in vivo; settings: 125 mg/kg; mice lesioned with intrahippocampal kainic acid
Source text: The MTLE mouse model recapitulates many of the characteristics observed in human patients with temporal lobe epilepsy (TLE). The MTLE mouse is characterized by an initial neurotoxic event, a unilateral intrahippocampal injection of kainic acid (KA) into the dorsal hippocampus, which induces non-convulsive SE lasting several hours. This initial event is followed by a latent phase. Two to three weeks after KA injection, spontaneous recurrent hippocampal paroxysmal discharges (HPD) are only recorded in the epileptic hippocampus and remain stable and stereotyped for the whole life of the animal. These HPDs occur spontaneously about 30-60 times per hour when the animals are in a state of quiet wakefulness, generally last 15-20 sec and are associated with behavioral arrest and/or mild motor automatisms. […] Data are analyzed for the period of 10 minutes before and 10 minutes after peak time of effect of the investigational compound, as determined from the 6 Hz 44 mA seizure test. […] Data are presented as the raw number of HPDs during the analyzed 20 min period (10 minutes before and 10 minutes after peak time of effect of compound) for each MTLE mouse, group mean number of HPDs, and effect on suppression as represented by percent of baseline HPD values.

[4] = test system: maximal electroshock seizure; assay: Maximal Electroshock Seizure (MES) rat model; type: in vivo; settings: po, 0.5 hour
Procedure: Male, Sprague-Dawley rats and CD-1 mice were used for all studies. All animals were allowed ad-lib access to food and water except during experiment. Animals were housed within an animal vivarium maintained under a 12 h light:dark cycle (lights on: 07:00 h), and all experiments were conducted in the animals light phase. For all experiments, animals were habituated to the vivarium for a minimum of 72 h before experimentation. The experimental procedures used in the present investigation were conducted under the Association for Assessment and Accreditation of Laboratory Animal Care (AAALAC) and the Canadian Council on Animal Care (CCAC) guidelines. All compounds were sonicated in 5% Tween 80® in saline or methylcellulose 0.5% (wgt/vol), using MC and sterile water and injected in a dose volume of 5 ml/kg or 10 ml/kg (rat), and 10 ml/kg (mouse). Drugs were administered by either the oral, intraperitoneal or intravenous route. Male Sprague-Dawley rats of body weight 80-100 g were used for these studies. Each experiment was conducted over 3 consecutive days. On day 1 and 2, each rat received a single electrical stimulus (150 mA, 0.2 s duration, 60 Hz) via corneal electrodes moistened with saline (Shock stimulator type 221: Harvard apparatus). […] Typically this reflected approximately 70-90% of the initial group. […] On the test day following a defined drug pretreatment period, rats received a maximal electroshock (150 mA, 0.2 s duration, 60 Hz) via corneal electrodes. Protection was defined as absence of a full tonic seizure within 10 s of stimulus delivery. Twenty minutes before the MES procedure, the animals were tested on a fixed speed rotorod (best score from 3 trials at 8 r.p.m, trial duration=60 s) to give an early assessment of drug effect on gross motor function.

[5] = test system: cold allodynia; assay: Spinal nerve injury (SNI) model, acetone test; type: in vivo, rat
Source text: The SNI model of neuropathic pain was developed in rats using the procedure described by Decostered and Woolf, Pain 2000, 87: 149-158. Under isoflurane anesthesia, the skin on the lateral surface of the thigh was incised and a section was made directly through the biceps femoris muscle exposing the sciatic nerve and its three terminal branches: the sural, common peroneal and tibial nerves. The common peroneal and the tibial nerves were tight-ligated with 6-0 suture and sectioned distal to the ligation, removing 2-4 mm of the distal nerve stump. Extreme care was taken to avoid any contact with or stretching of the intact sural nerve. Following surgery, hemostasis was confirmed and the muscles were sutured in layers using 4-0 suture and the skin was closed with 4-0 suture and metal clips. Cold allodynia was assessed by using the acetone test. In this test, 25 μl of acetone is sprayed on to the plantar surface of the hind paw. Evaporation of acetone causes cooling of the skin. The cold stimulus sets up nociceptive responses from the injured paw as evidenced by paw lifting, paw licking and grooming. The duration of the nociceptive responses is noted.

Row | Compound | ED50 [1] [mg/kg] | ED50 at 0.5 hour [2] [mg/kg] | effect against spontaneous recurrent hippocampal paroxysmal discharges (HPD) [3] | ED50 [4] [mg/kg] | cold allodynia in the neuropathic rats [5]
1 | C[C@@H](Oc1cc(Cl)cc(C(F)(F)F)c1)C(N)=O [I(D), (2R)-2-[3-chloro-5-(trifluoromethyl)-phenoxy]propanamide] | 28.9 ± 3.08 | > 170 | effective | 22.7 | –
2 | NC(=O)COc1cc(C(F)(F)F)cc(C(F)(F)F)c1 [I(F), 2-[3,5 bis(trifluoromethyl)-phenoxy]acetamide;] | – | > 130 | – | 18.4 | significantly reduced
